Measured values from US8546392B2, “17Beta-hydroxysteroid dehydrogenase type 1 inhibitors for the treatment of hormone-related diseases” (Universitaet des Saarlandes, priority 2008, dated 2013).

Target: 17β-HSD1 (Homo sapiens (Human), UniProt P14061)
Assay: 17β-HSD1 test assay (recombinant protein from Sf9 insect cells, 3H-estrone/NADPH)
Format: biochemical
Conditions: for inhibition at 1 µM: read-out: HSD 1 μM (% inhibition of HSD1); for inhibition at 0.1 µM: read-out: HSD1 100 nM (% inhibition)
Protocol: Recombinant protein obtained from Sf9 insect cells (0.1 μg/ml) is incubated with 20 mM KH2PO4, pH 7.4, 30 nM ^3H-estrone and 1 mM NADPH for 30 min at RT in the presence of the potential inhibitor in a concentration of 1 μM or 100 nM. The stock solutions of the compounds are prepared in DMSO (dimethylsulfoxide) so that the final concentration of DMSO in the sample is 1%. After the prescribed incubation time, the reaction is quenched by adding trichloroacetic acid (10% final concentration). The samples are centrifuged in microtitration plates at 400 rpm for 10 min, and the supernatants are charged on a reversed-phase HPLC equipped with a Waters Symmetrie C18 column and Waters Sentry Guard column. The isocratic HPLC run is performed at RT with a flow rate of 1 ml/min and acetonitrile/water 48:52 as the eluent. The radioactivity was measured by means of a Packard Flow Scintillation Analyzer. […]

Sequence of 17β-HSD1 (P14061 whole entry): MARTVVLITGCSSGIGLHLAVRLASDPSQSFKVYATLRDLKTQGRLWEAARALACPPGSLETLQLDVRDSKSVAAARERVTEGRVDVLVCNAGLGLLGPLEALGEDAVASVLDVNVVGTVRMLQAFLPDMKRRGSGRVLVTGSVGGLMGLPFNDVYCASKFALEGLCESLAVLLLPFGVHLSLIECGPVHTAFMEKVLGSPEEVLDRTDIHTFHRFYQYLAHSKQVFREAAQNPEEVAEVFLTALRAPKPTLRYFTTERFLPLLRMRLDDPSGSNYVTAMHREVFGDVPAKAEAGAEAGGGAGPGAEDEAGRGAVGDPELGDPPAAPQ

| Compound | inhibition at 1 µM (inhibitor 1 μM) | inhibition at 0.1 µM (inhibitor 100 nM) | HSD1 100 nM (% inhibition) (inhibitor 100 nM) | HSD 1 μM (% inhibition of HSD1) (inhibitor 1 μM) |
| --- | --- | --- | --- | --- |
| Cc1noc(NC(=O)c2c(O)ccc3cc(-c4cccc(O)c4)ccc23)c1C [Compound 47, N-(3,4-Dimethylisoxazol-5-yl)-2-hydroxy-6-(3-hydroxyphenyl)-1-naphthamide] | 70% | 43% |  |  |
| O=C(Nc1ccccn1)c1c(O)ccc2cc(-c3cccc(O)c3)ccc12 [Compound 49, 2-Hydroxy-6-(3-hydroxyphenyl)-N-(pyridin-2-yl)-1-naphthamide] | 84% | 37% |  |  |
| O=C(Nc1ncccn1)c1c(O)ccc2cc(-c3cccc(O)c3)ccc12 [Compound 50, 2-Hydroxy-6-(3-hydroxyphenyl)-N-(pyrimidin-2-yl)-1-naphthamide] | 40% | < 10% |  |  |
| O=C(c1c(O)ccc2cc(-c3cccc(O)c3)ccc12)N1CCCCC1 [Compound 51, (2-Hydroxy-6-(3-hydroxyphenyl)naphthalene-1-yl)(piperidin-1-yl)methanone] | 73.4% | 28.8% |  |  |
| O=C(Nc1nccs1)c1cccc(-c2c(O)ccc3cc(-c4cccc(O)c4)ccc23)c1 [Compound 71, 3-(2-Hydroxy-6-(3-hydroxyphenyl)naphthalene-1-yl)-N-(thiazol-2-yl)benzamide] | 74.7% | 66.4% |  |  |
| O=S(=O)(Nc1cccc(-c2c(O)ccc3cc(-c4cccc(O)c4)ccc23)c1)c1cccc2cccnc12 [Compound 73, N-{3-[2-hydroxy-6-(3-hydroxyphenyl)-1-naphthyl]phenyl}quinoline-8-sulfonamide] | 80.5% | 71.2% |  |  |
| O=S(=O)(Nc1cccc(-c2c(O)ccc3cc(-c4cccc(O)c4)ccc23)c1)c1ccc(Cl)s1 [Compound 74, 5-chloro-N-{3-[2-hydroxy-6-(3-hydroxyphenyl)-1-naphthyl]-phenyl}thiophene-2-sulfonamide] | 78% | 46.4% |  |  |
| N#Cc1ccccc1S(=O)(=O)Nc1cccc(-c2c(O)ccc3cc(-c4cccc(O)c4)ccc23)c1 [Compound 76, 2-cyano-N-{3-[2-hydroxy-6-(3-hydroxyphenyl)-1-naphthyl]phenyl}benzenesulfonamide] | 79.7% | 62.1% |  |  |
| O=[N+]([O-])c1cc(S(=O)(=O)Nc2cccc(-c3c(O)ccc4cc(-c5cccc(O)c5)ccc34)c2)ccc1Cl [Compound 77, 4-chloro-N-{3-[2-hydroxy-6-(3-hydroxyphenyl)-1-naphthyl]phenyl}-3-nitrobenzenesulfonamide] | 79.9% | 73.2% |  |  |
| COC(=O)c1csc(S(=O)(=O)Nc2cccc(-c3c(O)ccc4cc(-c5cccc(O)c5)ccc34)c2)c1OC [Compound 78, methyl 5-{3-[2-hydroxy-6-(3-hydroxyphenyl)-1-naphthyl]phenylsulfamoyl}-4-methoxythiophene-3-carboxylate] | 79.2% | 63.7% |  |  |
| CC(=O)Nc1ccc(S(=O)(=O)Nc2cccc(-c3c(O)ccc4cc(-c5cccc(O)c5)ccc34)c2)cc1 [Compound 79, N-(4-{3-[2-hydroxy-6-(3-hydroxyphenyl)-1-naphthyl]phenylsulfamoyl}phenyl)acetamide] | 80.2% | 73.8% |  |  |
| CSc1nccc(-c2ccc(S(=O)(=O)Nc3cccc(-c4c(O)ccc5cc(-c6cccc(O)c6)ccc45)c3)s2)n1 [Compound 80, N-{3-[2-hydroxy-6-(3-hydroxyphenyl)-1-naphthyl]phenyl}-5-[2-(methylsulfanyl)pyrimidin-4-yl]thiophene-2-sulfonamide] | 79.4% | 64.7% |  |  |
| O=[N+]([O-])c1ccc(S(=O)(=O)Nc2cccc(-c3c(O)ccc4cc(-c5cccc(O)c5)ccc34)c2)cc1 [Compound 81, N-{3-[2-hydroxy-6-(3-hydroxyphenyl)-1-naphthyl]phenyl}-4-nitrobenzenesulfonamide] | 82.9% | 71.5% |  |  |
| O=S(=O)(Nc1cccc(-c2c(O)ccc3cc(-c4cccc(O)c4)ccc23)c1)c1ccc(Br)cc1OC(F)(F)F [Compound 82, 4-bromo-N-{3-[2-hydroxy-6-(3-hydroxyphenyl)-1-naphthyl]phenyl}-2-(trifluoromethoxy)benzenesulfonamide] | 78.4% | 40.5% |  |  |
| O=[N+]([O-])c1cc(C(F)(F)F)ccc1S(=O)(=O)Nc1cccc(-c2c(O)ccc3cc(-c4cccc(O)c4)ccc23)c1 [Compound 83, 2-nitro-N-{3-[2-hydroxy-6-(3-hydroxyphenyl)-1-naphthyl]phenyl}-4-(trifluoromethyl)benzenesulfonamide] | 78.1% | 49.8% |  |  |
| O=S(=O)(Nc1cccc(-c2c(O)ccc3cc(-c4cccc(O)c4)ccc23)c1)c1cc(Br)c(Br)s1 [Compound 85, 4,5-dibromo-N-{3-[2-hydroxy-6-(3-hydroxyphenyl)-1-naphthyl]phenyl}thiophene-2-sulfonamide] | 77.7% | 54.5% |  |  |
| O=S(=O)(Nc1cccc(-c2c(O)ccc3cc(-c4cccc(O)c4)ccc23)c1)c1ccc2ncsc2c1 [Compound 86, N-{3-[2-hydroxy-6-(3-hydroxyphenyl)-1-naphthyl]-phenyl}-1,3-benzothiazole-6-sulfonamide] | 80.9% | 71.6% |  |  |
| O=S(=O)(Nc1cccc(-c2c(O)ccc3cc(-c4cccc(O)c4)ccc23)c1)c1cccs1 [Compound 87, N-{3-[2-hydroxy-6-(3-hydroxyphenyl)-1-naphthyl]phenyl}thiophene-2-sulfonamide] | 80.6% | 71.7% |  |  |
| O=C(NCCc1ccc(S(=O)(=O)Nc2cccc(-c3c(O)ccc4cc(-c5cccc(O)c5)ccc34)c2)cc1)C(F)(F)F [Compound 88, 2,2,2-trifluoro-N-[2-(4-{3-[2-hydroxy-6-(3-hydroxyphenyl)-1-naphthyl]phenylsulfamoyl}phenyl)ethyl]acetamide] | 82.4% | 76.8% |  |  |
| O=S(=O)(Nc1cccc(-c2c(O)ccc3cc(-c4cccc(O)c4)ccc23)c1)c1cc(F)c(Br)cc1F [Compound 89, 4-bromo-2,5-difluoro-N-{3-[2-hydroxy-6-(3-hydroxyphenyl)-1-naphthyl]phenyl}benzenesulfonamide] | 78.2% | 68% |  |  |
| CS(=O)(=O)NC(=O)c1cccc(-c2c(O)ccc3cc(-c4cccc(O)c4)ccc23)c1 [Compound 90, 3-(2-Hydroxy-6-(3-hydroxyphenyl)naphthalene-1-yl)-N-(methylsulfonyl)-benzamide] | 77.3% | 16.5% |  |  |
| O=S(=O)(c1ccccc1)c1c(O)ccc2cc(-c3cccc(O)c3)ccc12 [Compound 91, 6-(3-Hydroxyphenyl)-1-(phenylsulfonyl)-2-naphthol] | 33% |  |  |  |
| Cc1ccc(S(=O)(=O)c2c(O)ccc3cc(-c4cccc(O)c4)ccc23)cc1 [Compound 92] | 75% |  |  |  |
| N-{3-[2-hydroxy-6-(3-hydroxyphenyl)-1-naphthyl]phenyl-3-nitrobenzenesulfonamide [Compound 75] |  |  | 72.8% | 78.9% |
